The values below are quoted from earlier work in patent publication US7851190B2, “Biosynthetic gene cluster for leptomycins” (priority 2003, dated 2010).

The test system of one series is HIV-1 Rev. The note with it: in vitro; FIG. 2.
Series [1] deals with adriamycin, amsacrine and mitoxantrone resistant P388 leukemia, other leukemias, B16 melanoma, Ridgway osteogenic and M5076 sarcomas and mammary adenocarinoma.

Each structure is given as a SMILES string.

With `CCOC(=O)/C=C\n1ncnc1-c1cc(Cl)ccc1N` [PKF050-638], in the series on HIV-1 Rev, the “difference in activity between a Rev-dependent assay and cytotoxicity to the same cells” value was 75 fold.

As to `CCC(=C/[C@H](C)C/C=C/C(C)=C/[C@@H](C)C(=O)[C@@H](C)[C@H](O)[C@@H](C)C/C(C)=C/C(=O)O)/C=C/[C@@H]1OC(=O)C=C[C@@H]1C` [LMB, Leptomycin B], the “difference in activity between a Rev-dependent assay and cytotoxicity to the same cells” value in the series on HIV-1 Rev is “approx. 250 fold”. The acute toxicity entry in series [1] (exacerbated upon more frequent or oral administration) is listed as “gastrointestinal”. For the same molecule, in series [1] (mouse murine and xenograph cancer models, low doses), the antitumor activity result was “Activity was observed at low doses”.
